Here are results for 15 compounds from patent publication US20260035367A1 (Celgene Corporation, priority 2021, published 2026).

Experiment [1] has as its target T1, Recombinant human PKC-theta (His-tagged 362-706) (Homo sapiens, UniProt Q04759).
T1 construct: Recombinant human PKC-theta (His-tagged 362-706); His
As to the kind of experiment: PKC-theta inhibition assay (HTRF KinEASE kit). As to conditions: ATP 6.5 μM, STK substrate 525 nM. In kind it is biochemical. The method, boiled down: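 IC50 values were from 4-parameter logistic fits of percent inhibition, based on acceptor/donor HTRF ratios over 10 semi-log compound doses. Kinase reactions, started with substrate plus ATP, ran 30 min at 25 °C in buffer supplemented with 10 mM MgCl2, 1 mM DTT and 0.1% Tween 20; detection lasted 2 h.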
On the technique in general: TR-FRET usually uses a lanthanide donor and a delayed reading to cut background.

Experiment [2] addresses T2, Recombinant human PKC-delta (His-tagged 345-676) (Homo sapiens, UniProt Q05655).
T2 construct: PKC-delta (His-tagged 345-676); His
The experiment can be described thus: PKC-delta inhibition assay (HTRF KinEASE kit). In kind it is biochemical. As to conditions: ratio, PKC-theta vs PKC-delta HTRF; for PKC-theta/PKC-delta selectivity (binned): binned A to G.
Method: PKC-theta and PKC-delta biochemical activities were measured using the PKC-theta HTRF KinEASEkit kit, according to manufacturer's instructions (Cisbio, catalogue number 61ST1PEJ). Briefly, the kinase buffer component of the kit was supplemented with 10 mM MgCl2, 1 mM DTT and 0.1% Tween 20. […] The streptavidin_XL665 and STK antibody-cryptate detection reagents were mixed according to the manufacturer's instructions. Test compounds were diluted in DMSO in a series of 10 semi-log step doses; 10 nL of each compound dose were dispensed in 384 well plates. […] The reaction was started by addition of the substrate and ATP and incubated at 25° C. for 30 minutes or 20 minutes for the PKC-theta and PKC-delta assays, respectively. The detection reagents were added, and the plate was incubated in the dark for 2 hours. […] The ratio of acceptor and donor emission signals was calculated for each well.

Experiment [3] deals with IL-2 secretion by human effector memory T cells (TEM). The experiment can be described thus: Effector memory T cells IL-2 release assay (CD3/CD28 stimulation, HTRF IL-2 detection). In kind it is cell-based. The note with it: Homo sapiens, T-cell, 24 h. A digest of the protocol:
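IL-2 released into the supernatant was quantified by HTRF after 24 h at 37 °C in 5% CO2. The cells were stimulated primary human TEM from donor buffy coats, treated with a 10-point semi-log compound series (0.1% DMSO final, triplicates).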

[4] abbreviates: binned A to H, read-out: PKC-theta HTRF pIC50 (binned) (converted).
Setting [5] is: read-out: PKC-theta HTRF pIC50 (converted).
Setting [6] is: binned A to G, read-out: PKC-theta IL2 pIC50 (binned) (converted).
Where [7] appears, read: read-out: PKC-theta IL2 pIC50 (converted).

The structures appear in SMILES notation. Where two headings read alike, the source gives them in different places. Where only a bound is given, the exact number is not on record here.

T1 sequence (Q04759 362-706): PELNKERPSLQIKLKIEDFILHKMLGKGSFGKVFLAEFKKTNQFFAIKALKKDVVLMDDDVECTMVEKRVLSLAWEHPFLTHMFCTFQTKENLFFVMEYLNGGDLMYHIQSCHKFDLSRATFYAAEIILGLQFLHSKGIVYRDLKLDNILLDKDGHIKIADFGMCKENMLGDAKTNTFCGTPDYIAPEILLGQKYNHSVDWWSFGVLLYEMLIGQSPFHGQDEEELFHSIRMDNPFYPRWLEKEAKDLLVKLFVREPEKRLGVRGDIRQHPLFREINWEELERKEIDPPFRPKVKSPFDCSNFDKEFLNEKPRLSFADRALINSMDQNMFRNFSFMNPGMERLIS
T2 sequence (Q05655 345-676): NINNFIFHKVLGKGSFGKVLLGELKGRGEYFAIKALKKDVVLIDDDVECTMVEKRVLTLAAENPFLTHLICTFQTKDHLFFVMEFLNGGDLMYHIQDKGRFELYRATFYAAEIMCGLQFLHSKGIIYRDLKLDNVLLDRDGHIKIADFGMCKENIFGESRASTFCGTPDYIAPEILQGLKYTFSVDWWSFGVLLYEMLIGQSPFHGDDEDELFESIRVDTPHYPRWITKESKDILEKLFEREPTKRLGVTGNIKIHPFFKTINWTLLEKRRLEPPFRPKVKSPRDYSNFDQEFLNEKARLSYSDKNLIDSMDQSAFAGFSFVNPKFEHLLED

For `C[C@H]1CNCCN(c2cc(C(F)(F)F)cc(-c3ccnc4c3C(C)(C)C(=O)N4)n2)C1` [Example 181], the IC50 in experiment [1] (setting [4]) is 10 to 31.6 nM; in experiment [1] (setting [5]) it was 12.6 nM; in experiment [3] (setting [6]) it was 100 to 316 nM; in experiment [3] (setting [7]), 158 nM. Also, in experiment [2], the PKC-theta/PKC-delta selectivity stood at 12. Besides, the “PKC-theta/PKC-delta selectivity (binned)” value in experiment [2] is “D (a ratio of between 10 and 20)”.
On to `C[C@@H]1CNCCN(c2cc(C(F)(F)F)cc(-c3ccnc4c3C(C)(C)C(=O)N4)n2)C1` [Example 182], for which the IC50 in experiment [1] (setting [4]) is 3.16 to 10 nM; in experiment [1] (setting [5]), 7.94 nM; in experiment [3] (setting [6]), 100 to 316 nM; in experiment [3] (setting [7]), 158 nM. The PKC-theta/PKC-delta selectivity in experiment [2] is reported as 25. Also, the “PKC-theta/PKC-delta selectivity (binned)” value in experiment [2] is “C (a ratio of between 20 and 30)”.
In the case of `C[C@H]1CCN(c2cc(C(F)(F)F)cc(-c3ccnc4c3C(C)(C)C(=O)N4)n2)CCN1` [Example 183], the IC50 was 3.16 to 10 nM in experiment [1] (setting [4]), 6.31 nM in experiment [1] (setting [5]), 100 to 316 nM in experiment [3] (setting [6]) and 126 nM in experiment [3] (setting [7]). Besides, in experiment [2], the PKC-theta/PKC-delta selectivity is on record as 25. Besides, the “PKC-theta/PKC-delta selectivity (binned)” value in experiment [2] is “C (a ratio of between 20 and 30)”.
For `C[C@@H]1CCN(c2cc(C(F)(F)F)cc(-c3ccnc4c3C(C)(C)C(=O)N4)n2)CCN1` [Example 184], the IC50 was 10 to 31.6 nM in experiment [1] (setting [4]), 10 nM in experiment [1] (setting [5]), 100 to 316 nM in experiment [3] (setting [6]) and 251 nM in experiment [3] (setting [7]). The PKC-theta/PKC-delta selectivity in experiment [2] is 20. The “PKC-theta/PKC-delta selectivity (binned)” value in experiment [2] was “C (a ratio of between 20 and 30)”.
Consider `C[C@H]1CN(c2cc(C(F)(F)F)cc(-c3ccnc4c3C(C)(C)C(=O)N4)n2)CCCN1` [Example 185], for which the IC50 was 3.16 to 10 nM in experiment [1] (setting [4]), 5.01 nM in experiment [1] (setting [5]), 31.6 to 100 nM in experiment [3] (setting [6]) and 39.8 nM in experiment [3] (setting [7]). In addition, the PKC-theta/PKC-delta selectivity in experiment [2] turned out to be 27. The “PKC-theta/PKC-delta selectivity (binned)” value in experiment [2] was “C (a ratio of between 20 and 30)”.
For the compound `C[C@@H]1CN(c2cc(C(F)(F)F)cc(-c3ccnc4c3C(C)(C)C(=O)N4)n2)CCCN1` [Example 186], the IC50 was 3.16 to 10 nM in experiment [1] (setting [4]), 6.31 nM in experiment [1] (setting [5]), 31.6 to 100 nM in experiment [3] (setting [6]) and 50.1 nM in experiment [3] (setting [7]). In addition, in experiment [2], the PKC-theta/PKC-delta selectivity is listed as 22. The “PKC-theta/PKC-delta selectivity (binned)” value in experiment [2] is “C (a ratio of between 20 and 30)”.
In the case of `C[C@H]1CCNCCN1c1cc(C(F)(F)F)cc(-c2ccnc3c2C(C)(C)C(=O)N3)n1` [Example 187], the IC50 in experiment [1] (setting [4]) is 3.16 to 10 nM; in experiment [1] (setting [5]) it was 5.01 nM; in experiment [3] (setting [6]) it was 31.6 to 100 nM; in experiment [3] (setting [7]), 100 nM. Also, in experiment [2], the PKC-theta/PKC-delta selectivity is 28. In addition, the “PKC-theta/PKC-delta selectivity (binned)” value in experiment [2] was “C (a ratio of between 20 and 30)”.
As to `C[C@@H]1CCNCCN1c1cc(C(F)(F)F)cc(-c2ccnc3c2C(C)(C)C(=O)N3)n1` [Example 188], the IC50 was 3.16 to 10 nM in experiment [1] (setting [4]), 6.31 nM in experiment [1] (setting [5]), 31.6 to 100 nM in experiment [3] (setting [6]) and 100 nM in experiment [3] (setting [7]). For the same compound, the PKC-theta/PKC-delta selectivity in experiment [2] is listed as 28. Besides, the “PKC-theta/PKC-delta selectivity (binned)” value in experiment [2] was “C (a ratio of between 20 and 30)”.
Regarding `C[C@H]1CNCCCN1c1cc(C(F)(F)F)cc(-c2ccnc3c2C(C)(C)C(=O)N3)n1` [Example 189], the IC50 in experiment [1] (setting [4]) was 3.16 to 10 nM; in experiment [1] (setting [5]) it was 5.01 nM; in experiment [3] (setting [6]), 100 to 316 nM; in experiment [3] (setting [7]), 251 nM. Further, the PKC-theta/PKC-delta selectivity in experiment [2] came to 16. In experiment [2], the “PKC-theta/PKC-delta selectivity (binned)” value is “D (a ratio of between 10 and 20)”.
As to `C[C@@H]1CNCCCN1c1cc(C(F)(F)F)cc(-c2ccnc3c2C(C)(C)C(=O)N3)n1` [Example 190], the IC50 was 3.16 to 10 nM in experiment [1] (setting [4]), 3.16 nM in experiment [1] (setting [5]), 31.6 to 100 nM in experiment [3] (setting [6]) and 79.4 nM in experiment [3] (setting [7]). In addition, the PKC-theta/PKC-delta selectivity in experiment [2] was 32. The “PKC-theta/PKC-delta selectivity (binned)” value in experiment [2] was “B (a ratio of between 30 and 50)”.
Consider `CC1(C)C(=O)Nc2nccc(-c3cc(C(F)(F)F)cc(N4CCN[C@H]5COC[C@H]54)n3)c21` [Example 192], for which the IC50 in experiment [1] (setting [4]) is 3.16 to 10 nM; in experiment [1] (setting [5]), 3.98 nM; in experiment [3] (setting [6]), 100 to 316 nM; in experiment [3] (setting [7]), 158 nM. Further, in experiment [2], the PKC-theta/PKC-delta selectivity came out at 31. For the same compound, the “PKC-theta/PKC-delta selectivity (binned)” value in experiment [2] was “B (a ratio of between 30 and 50)”.
Take `CC(F)(F)c1cc(-c2ccnc3c2C(C)(C)C(=O)N3)nc(N2CCCNCC2)c1` [Example 203]: the IC50 in experiment [1] (setting [4]) was 3.16 to 10 nM; in experiment [1] (setting [5]), 6.31 nM; in experiment [3] (setting [6]), 31.6 to 100 nM; in experiment [3] (setting [7]) it was 100 nM. In experiment [2], the PKC-theta/PKC-delta selectivity stood at 14. Further, the “PKC-theta/PKC-delta selectivity (binned)” value in experiment [2] is “D (a ratio of between 10 and 20)”.
As for `C[C@@H]1CN(c2cc(C(C)(F)F)cc(-c3ccnc4c3C(C)(C)C(=O)N4)n2)CCCN1` [Example 204], the IC50 is 3.16 to 10 nM in experiment [1] (setting [4]), 6.31 nM in experiment [1] (setting [5]), 100 to 316 nM in experiment [3] (setting [6]) and 126 nM in experiment [3] (setting [7]). Further, the PKC-theta/PKC-delta selectivity in experiment [2] worked out at 24. Besides, the “PKC-theta/PKC-delta selectivity (binned)” value in experiment [2] was “C (a ratio of between 20 and 30)”.
Consider `CC1(C)C(=O)Nc2nccc(-c3nc(N4CCNCC4)c(F)cc3Cl)c21` [Example 207], for which the IC50 was 100 to 316 nM in experiment [1] (setting [4]), 251 nM in experiment [1] (setting [5]), more than 1000 nM in experiment [3] (setting [6]) and 2000 nM in experiment [3] (setting [7]). The PKC-theta/PKC-delta selectivity in experiment [2] amounted to 5. For the same compound, the “PKC-theta/PKC-delta selectivity (binned)” value in experiment [2] is “F (a ratio of between 1 and 5)”.
For `C[C@H]1CN(c2cc(Cl)cc(-c3ccnc4c3C(C)(O)C(=O)N4)n2)CCN1` (stereo partly drawn) [Example 208], the IC50 in experiment [1] (setting [4]) was 1 to 3.16 nM; in experiment [1] (setting [5]), 2 nM; in experiment [3] (setting [6]) it was 10 to 31.6 nM; in experiment [3] (setting [7]) it was 20 nM. Also, the PKC-theta/PKC-delta selectivity in experiment [2] was 12. The “PKC-theta/PKC-delta selectivity (binned)” value in experiment [2] is “D (a ratio of between 10 and 20)”.
